Experiments:
ABCR = target: T1, ABCR (Homo sapiens, UniProt P78363); assay: 8-azido-ATP/ADP trapping in membranes from transfected cells; assay type: binding; conditions: 5 μM 8-azido-[α-32P]ATP, 37° C.; 800 μM orthovanadate, 50 μM all-trans retinal, or 10 mM MgATP in wash step
T1 construct: Membranes from transfected cells expressing either full-length ABCR (lanes 1 & 2) or co-expressing the N and C halves; expressed in transfected cells; host or cells: transfected cells (COS-1 or EBNA293)
Method: 8-Azido-ATP Trapping—Membranes were incubated with 5 [M 8-azido-[α-^32P]ATP in 50 μl of labeling buffer with or without 800 μM sodium orthovanadate for 10 min at 37° C. All-trans retinal and 50 μM DTT were added where indicated. Binding was stopped by the addition of ice-cold 20 mM Tris-HCl, pH 7.4, the membranes were collected by centrifugation and washed one more time. Samples exposed to orthovanadate were washed in the presence of 800 μM orthovanadate. In some experiments MgATP (10 mM) was included in the wash step, but had no effect. The membranes were suspended in 30 μl of 20 mM Tris-HCl, pH 7.4, irradiated with UV light for 10 min on ice, diluted to 200 μl with TBS, pH 7.4, and solubilized as described above for azido-ATP binding.
To gain more insight into the properties of the NBD of ABCR, trapping experiments were carried out using 8-azido-[α^32P]ATP.

[1] = target: T2, co-expressed N and C halves of ABCR (Homo sapiens, UniProt P78363); assay: 8-azido-ATP photoaffinity labeling of membranes from transfected cells; assay type: binding; conditions: 1 mM ATP added prior to labeling with 1.5 μM 8-azido-[α-32P]ATP; FIG. 5A lane 4; C-half labeled
T2 construct: N-half (amino acids 1-1325) and C-half (amino acids 1326-2273) of ABCR; added initiator Met (ATG in the forward primer, read by me) (N); made in house; host or cells: COS-1 (co-transfection)
T2 sequence (P78363 1-1325): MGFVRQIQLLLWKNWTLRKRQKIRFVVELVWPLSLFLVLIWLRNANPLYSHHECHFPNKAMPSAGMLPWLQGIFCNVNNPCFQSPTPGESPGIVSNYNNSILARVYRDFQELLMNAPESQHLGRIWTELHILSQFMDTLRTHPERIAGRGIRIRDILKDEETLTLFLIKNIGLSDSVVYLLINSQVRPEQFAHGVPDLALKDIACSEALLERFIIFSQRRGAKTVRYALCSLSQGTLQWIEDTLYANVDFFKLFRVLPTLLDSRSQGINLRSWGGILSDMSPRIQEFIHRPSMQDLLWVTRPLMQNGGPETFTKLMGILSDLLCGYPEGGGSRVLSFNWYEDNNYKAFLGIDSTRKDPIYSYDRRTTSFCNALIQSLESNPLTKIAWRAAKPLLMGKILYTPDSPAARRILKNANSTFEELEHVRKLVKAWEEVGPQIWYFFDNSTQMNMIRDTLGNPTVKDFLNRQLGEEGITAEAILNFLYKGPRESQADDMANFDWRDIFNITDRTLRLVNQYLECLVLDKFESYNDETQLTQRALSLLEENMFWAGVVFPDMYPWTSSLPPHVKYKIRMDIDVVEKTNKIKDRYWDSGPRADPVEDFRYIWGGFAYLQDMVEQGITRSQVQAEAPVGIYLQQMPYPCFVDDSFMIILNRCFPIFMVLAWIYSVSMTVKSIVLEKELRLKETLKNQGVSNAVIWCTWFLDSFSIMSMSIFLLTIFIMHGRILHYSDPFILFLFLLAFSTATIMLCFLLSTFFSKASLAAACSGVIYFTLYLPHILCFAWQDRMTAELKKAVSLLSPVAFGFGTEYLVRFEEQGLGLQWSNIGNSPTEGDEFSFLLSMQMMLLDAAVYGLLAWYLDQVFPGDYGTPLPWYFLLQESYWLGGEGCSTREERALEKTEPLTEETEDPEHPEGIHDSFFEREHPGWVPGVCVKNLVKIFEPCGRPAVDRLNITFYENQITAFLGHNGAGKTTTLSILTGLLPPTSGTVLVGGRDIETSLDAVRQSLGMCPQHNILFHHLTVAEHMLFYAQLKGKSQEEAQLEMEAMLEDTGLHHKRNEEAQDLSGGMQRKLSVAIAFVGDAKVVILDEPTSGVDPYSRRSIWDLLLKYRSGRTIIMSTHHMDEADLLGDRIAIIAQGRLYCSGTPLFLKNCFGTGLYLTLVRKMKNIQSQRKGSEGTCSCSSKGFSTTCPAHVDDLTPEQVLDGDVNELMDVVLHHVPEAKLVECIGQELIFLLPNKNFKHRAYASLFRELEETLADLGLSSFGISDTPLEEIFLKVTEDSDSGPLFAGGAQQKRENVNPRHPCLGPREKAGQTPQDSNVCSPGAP
T2 sequence (P78363 1326-2273): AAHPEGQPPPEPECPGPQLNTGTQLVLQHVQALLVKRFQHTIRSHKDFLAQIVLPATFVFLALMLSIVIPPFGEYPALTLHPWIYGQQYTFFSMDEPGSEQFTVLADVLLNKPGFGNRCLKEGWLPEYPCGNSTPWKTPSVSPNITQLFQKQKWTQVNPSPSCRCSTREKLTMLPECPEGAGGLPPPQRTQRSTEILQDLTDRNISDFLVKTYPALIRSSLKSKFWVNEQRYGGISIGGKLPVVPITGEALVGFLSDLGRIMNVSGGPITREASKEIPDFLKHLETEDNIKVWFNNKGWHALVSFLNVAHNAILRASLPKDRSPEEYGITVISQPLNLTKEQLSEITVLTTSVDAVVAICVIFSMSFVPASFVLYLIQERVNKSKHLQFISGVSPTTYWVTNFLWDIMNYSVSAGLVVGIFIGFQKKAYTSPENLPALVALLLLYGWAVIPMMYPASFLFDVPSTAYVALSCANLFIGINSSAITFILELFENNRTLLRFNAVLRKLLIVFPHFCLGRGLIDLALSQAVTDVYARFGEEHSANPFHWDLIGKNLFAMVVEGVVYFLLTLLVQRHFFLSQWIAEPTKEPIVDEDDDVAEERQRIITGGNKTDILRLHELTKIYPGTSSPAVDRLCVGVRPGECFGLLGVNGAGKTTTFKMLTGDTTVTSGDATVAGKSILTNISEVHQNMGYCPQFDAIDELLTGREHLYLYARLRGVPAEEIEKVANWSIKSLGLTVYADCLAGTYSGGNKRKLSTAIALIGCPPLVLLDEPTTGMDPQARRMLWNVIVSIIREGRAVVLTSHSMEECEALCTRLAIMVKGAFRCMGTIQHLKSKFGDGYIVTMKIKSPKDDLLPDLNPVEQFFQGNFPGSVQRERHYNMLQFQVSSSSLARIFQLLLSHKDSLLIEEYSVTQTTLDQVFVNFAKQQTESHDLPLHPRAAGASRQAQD
Method: (§1) Preparation of Membranes—Membranes from transfected cells were prepared as described previously (Bungert, S., Molday, L. L., and Molday, R. S. (2001) J Biol Chem 276(26), 23539-46). In some experiments, the protocol was scaled down and the cell homogenate from one or two 10-cm dishes, after passing through a 26-gauge needle (6 times), was centrifuged on a discontinuous gradient consisting of 5% and 60% sucrose for 30 min at 30,000 rpm (60,000×g) in a TLS55 rotor (Beckman Optima TL ultracentrifuge).
(§2) 8-Azido-ATP Photoaffinity Labeling—Membranes (50-150 μg protein) in 50 μl of labeling buffer (20 mM Tris-HCl, pH 7.4, 140 mM NaCl, 5 mM MgCl2) were incubated with 1-4 μM 8-azido-[α-^32P]ATP (Perkin-Elmer Life Science; 20 Ci/mmol) on ice, with gentle shaking, under UV light (254 nm) for 10 min at a distance of 10 cm. Ice-cold 20 mM Tris-HCl, pH 7.4, was added and the membranes were collected by centrifugation (TLA45 rotor, 55000 g, 15 min). The membrane suspension (200 μl in TBS [Tris-HCl, pH 7.4, 140 mM NaCl]) was added to 200 μl of 2% Triton X-100 in TBS, pH 7.4). After 30 min on ice, the cleared extract was mixed with 25 μl antibody coupled to Sepharose 2B for 1-12 h at 4° C. The beads were washed 4 times in TBS containing 0.2% Triton X-100 and eluted twice, 30 μl each, in 4% SDS, 0.2% Triton X-100, TBS. […]

full-length ABCR [2] = target: T3, full-length ABCR (Homo sapiens, UniProt P78363); assay: as above; assay type: binding; set-up: Membranes from transfected cells expressing either full-length ABCR (lanes 1 & 2); expressed in transfected cells; host or cells: transfected cells (COS-1 or EBNA293); conditions: 1 mM ATP added prior to labeling with 1.5 μM 8-azido-[α-32P]ATP; FIG. 5A lane 2
T3 sequence (P78363 whole entry): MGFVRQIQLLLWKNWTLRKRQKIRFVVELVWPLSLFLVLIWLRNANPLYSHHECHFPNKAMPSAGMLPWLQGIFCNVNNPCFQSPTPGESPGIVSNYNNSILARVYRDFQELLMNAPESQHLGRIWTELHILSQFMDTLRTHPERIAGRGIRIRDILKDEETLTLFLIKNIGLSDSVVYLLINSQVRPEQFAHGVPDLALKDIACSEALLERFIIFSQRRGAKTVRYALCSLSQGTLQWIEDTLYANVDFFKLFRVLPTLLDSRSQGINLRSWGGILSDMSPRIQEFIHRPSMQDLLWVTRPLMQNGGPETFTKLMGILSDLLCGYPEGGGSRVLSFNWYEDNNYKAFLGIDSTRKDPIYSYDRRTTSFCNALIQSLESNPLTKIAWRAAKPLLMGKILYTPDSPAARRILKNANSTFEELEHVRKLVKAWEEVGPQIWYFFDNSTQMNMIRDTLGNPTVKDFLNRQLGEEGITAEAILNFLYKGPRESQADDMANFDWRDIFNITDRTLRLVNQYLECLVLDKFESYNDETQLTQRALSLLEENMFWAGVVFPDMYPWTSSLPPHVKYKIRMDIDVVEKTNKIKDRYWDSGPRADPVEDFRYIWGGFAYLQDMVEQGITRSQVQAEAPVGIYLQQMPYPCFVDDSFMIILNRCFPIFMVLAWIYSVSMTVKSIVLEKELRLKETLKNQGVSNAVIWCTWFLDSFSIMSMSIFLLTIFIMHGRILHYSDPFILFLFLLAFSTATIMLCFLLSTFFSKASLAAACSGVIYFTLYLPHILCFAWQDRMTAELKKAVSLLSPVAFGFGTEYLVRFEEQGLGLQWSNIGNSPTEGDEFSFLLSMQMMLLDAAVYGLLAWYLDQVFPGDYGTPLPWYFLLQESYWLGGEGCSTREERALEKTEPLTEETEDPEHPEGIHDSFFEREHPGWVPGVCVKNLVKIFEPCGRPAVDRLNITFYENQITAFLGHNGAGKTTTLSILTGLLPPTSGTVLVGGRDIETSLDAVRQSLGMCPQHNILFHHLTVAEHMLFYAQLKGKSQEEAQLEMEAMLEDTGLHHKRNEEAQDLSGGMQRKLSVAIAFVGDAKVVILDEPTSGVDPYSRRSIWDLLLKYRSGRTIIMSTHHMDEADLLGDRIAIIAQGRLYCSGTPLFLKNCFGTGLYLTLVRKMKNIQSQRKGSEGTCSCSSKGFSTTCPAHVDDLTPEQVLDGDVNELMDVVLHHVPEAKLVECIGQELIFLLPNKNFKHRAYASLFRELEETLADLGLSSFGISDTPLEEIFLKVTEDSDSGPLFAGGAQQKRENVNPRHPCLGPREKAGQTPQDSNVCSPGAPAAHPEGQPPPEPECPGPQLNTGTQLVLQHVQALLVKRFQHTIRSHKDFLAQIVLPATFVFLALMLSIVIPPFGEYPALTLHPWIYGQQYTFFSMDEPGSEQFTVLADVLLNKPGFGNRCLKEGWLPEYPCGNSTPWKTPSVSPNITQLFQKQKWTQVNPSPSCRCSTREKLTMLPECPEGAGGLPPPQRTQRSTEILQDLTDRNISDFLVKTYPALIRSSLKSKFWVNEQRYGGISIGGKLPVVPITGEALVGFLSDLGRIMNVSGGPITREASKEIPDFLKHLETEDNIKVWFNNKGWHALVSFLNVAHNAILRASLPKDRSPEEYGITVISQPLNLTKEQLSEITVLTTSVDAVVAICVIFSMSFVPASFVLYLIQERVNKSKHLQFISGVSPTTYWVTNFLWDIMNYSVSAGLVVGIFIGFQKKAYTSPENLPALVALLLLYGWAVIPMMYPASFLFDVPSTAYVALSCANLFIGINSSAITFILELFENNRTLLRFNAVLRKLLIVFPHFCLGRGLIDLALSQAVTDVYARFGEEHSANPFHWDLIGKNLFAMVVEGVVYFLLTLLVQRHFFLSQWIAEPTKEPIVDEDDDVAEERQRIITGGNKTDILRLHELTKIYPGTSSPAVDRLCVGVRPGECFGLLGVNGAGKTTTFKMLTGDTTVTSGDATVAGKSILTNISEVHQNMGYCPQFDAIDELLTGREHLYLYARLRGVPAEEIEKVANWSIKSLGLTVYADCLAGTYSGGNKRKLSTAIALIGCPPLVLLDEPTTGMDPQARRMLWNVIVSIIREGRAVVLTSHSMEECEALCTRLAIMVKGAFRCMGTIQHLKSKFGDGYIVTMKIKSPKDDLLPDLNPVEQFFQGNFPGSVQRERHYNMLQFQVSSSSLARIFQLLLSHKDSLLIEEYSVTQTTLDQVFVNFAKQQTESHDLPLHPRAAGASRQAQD
Method: as §1, §2

full-length ABCR [3] = target: T3, full-length ABCR; assay: Retinal-stimulated ATPase activity of purified protein reconstituted in lipid vesicles; assay type: biochemical; set-up: Membranes from transfected cells expressing either full-length ABCR (lanes 1 & 2) or co-expressing the N and C halves; expressed in transfected cells; host or cells: transfected cells (COS-1 or EBNA293); conditions: expressed in COS-1 cells, purified on Rim 3F4 column, 50 μM [α32P]ATP
Method: Membranes (from two 10 cm dishes) were solubilized in 0.5 ml of 1% Triton-X100 in Buffer A (140 mM NaCl, 20 mM Tris-HCl, pH 7.4) for 20 min on ice. For ATPase assays, the membrane preparation step was omitted and the cell suspension was solubilized directly in Buffer B (10 mg/ml soybean phospholipids, 10% glycerol, 1 mM dithiothreitol, 100 mM NaCl, 3 mM MgCl2, 50 mM NaHEPES, pH 7.4) containing 18 mM CHAPS. The supernatant after a 10 min centrifugation at 40,000 rpm (TLA100.4 rotor) was mixed with 50 μl Rim3F4 Sepharose 2B for 1 h at 4° C. The beads were washed 6 times in Buffer A containing 0.2% Triton X-100 or Buffer B containing 10 mM CHAPS and eluted with 4% SDS (for electrophoresis) or 0.2 mg/ml Rim3F4 peptide (for reconstitution and determination of ATPase activity). […]
ATPase activity was measured as described previously (Ahn, J., Wong, J. T., and Molday, R. S. (2000) J Biol Chem 275(27), 20399-405) using 50 μM [α^32P]ATP and thin layer chromatography. The all-trans retinal concentration was determined spectrophotometrically (λ383 nm=42.88 mM^−1 cm^−1). […]
(§3) ATPase Activity of Expressed N and C Halves—The basal and retinal activated ATPase activity of full-length ABCR and the N and C halves individually or co-expressed in COS-1 cells was determined after immunoaffinity purification and reconstitution into lipid vesicles. […]

[4] = target: T2, co-expressed N and C halves of ABCR; assay: as above; assay type: biochemical; conditions: co-expressed in COS-1 cells, purified on Rim 3F4 column, 50 μM [α32P]ATP
Method: (§4) Membranes (from two 10 cm dishes) were solubilized in 0.5 ml of 1% Triton-X100 in Buffer A (140 mM NaCl, 20 mM Tris-HCl, pH 7.4) for 20 min on ice. For ATPase assays, the membrane preparation step was omitted and the cell suspension was solubilized directly in Buffer B (10 mg/ml soybean phospholipids, 10% glycerol, 1 mM dithiothreitol, 100 mM NaCl, 3 mM MgCl2, 50 mM NaHEPES, pH 7.4) containing 18 mM CHAPS. The supernatant after a 10 min centrifugation at 40,000 rpm (TLA100.4 rotor) was mixed with 50 μl Rim3F4 Sepharose 2B for 1 h at 4° C. The beads were washed 6 times in Buffer A containing 0.2% Triton X-100 or Buffer B containing 10 mM CHAPS and eluted with 4% SDS (for electrophoresis) or 0.2 mg/ml Rim3F4 peptide (for reconstitution and determination of ATPase activity). Purified protein (24 μl) was incubated with 6 μl of 50 mg/ml lipid (1:1 mixture of dioleoylphosphatidylethanolamine and brain polar lipid, by weight) and 3 μl n-octylglucoside for 30 min on ice. The mixture was diluted rapidly with 200 μl of Buffer C (1 mM dithiothreitol, 140 mM NaCl, 25 mM NaHEPES, pH 7.4) and passed through a 200 μl Extracti-gel column (Pierce). The flow-through containing the reconstituted protein was used for determination of ATPase activity.
(§5) ATPase activity was measured as described previously (Ahn, J., Wong, J. T., and Molday, R. S. (2000) J Biol Chem 275(27), 20399-405) using 50 μM [α^32P]ATP and thin layer chromatography. The all-trans retinal concentration was determined spectrophotometrically (λ383 nm=42.88 mM^−1 cm^−1). Protein concentration was estimated from the eluate before reconstitution by laser densitometry of Coomassie blue stained gels using bovine serum albumin as a standard. […] Direct protein measurements after reconstitution by densitometry of Western blots was about half of that in the eluate. […]
as §3

[5] = target: T4, individually expressed C half of ABCR (Homo sapiens, UniProt P78363); assay: as above; assay type: biochemical; conditions: individually expressed in COS-1 cells
T4 construct: N-half (amino acids 1-1325) and C-half (amino acids 1326-2273) of ABCR; added initiator Met (ATG in the forward primer, read by me) (N); made in house; host or cells: COS-1
T4 sequence (P78363 1326-2273): T2 sequence (P78363 1326-2273)
Method: as §4, §5, §3

[6] = target: T5, individually expressed N half of ABCR containing 1D4 epitope tag (N*) (Homo sapiens, UniProt P78363); assay: as above; assay type: biochemical; conditions: individually expressed in COS-1 cells, purified on Rho1D4-Sepharose
T5 construct: N-half (amino acids 1-1325) and C-half (amino acids 1326-2273) of ABCR; made in house; host or cells: COS-1
T5 sequence (P78363 1-1325): T2 sequence (P78363 1-1325)
Method: as §4, §5, §3

T1 sequence (P78363 whole entry): as above

## Nc1ncnc2c1ncn2[C@@H]1O[C@H](COP(=O)(O)OP(=O)([O-])OP(=O)([O-])O)[C@@H](O)[C@H]1O.[Mg+2] [MgATP]
ABCR
  effect on 8-azido ATP/ADP trapping: had no effect

## [Na+].[Na+].[Na+].[O]=[V]([O-])([O-])[O-] [sodium orthovanadate]
ABCR
  effect on 8-azido ATP/ADP trapping: not dependent

## Nc1ncnc2c1ncn2[C@@H]1O[C@H](COP(=O)(O)OP(=O)(O)OP(=O)(O)O)[C@@H](O)[C@H]1O [ATP]
[1]
  effect on 8-azido-ATP photoaffinity labeling: essentially abolished
full-length ABCR [2]
  effect on 8-azido-ATP photoaffinity labeling: essentially abolished

## CC1=C(/C=C/C(C)=C/C=C/C(C)=C/C=O)C(C)(C)CCC1 [all-trans retinal]
ABCR
  effect on 8-azido ATP/ADP trapping: not dependent on sodium orthovanadate or influenced
full-length ABCR [3]
  stimulation of ATPase activity by all-trans retinal: 1-2 fold
[4]
  stimulation of ATPase activity by all-trans retinal: 1-2 fold
[5]
  stimulation of ATPase activity by retinal: not stimulated
[6]
  stimulation of ATPase activity by retinal: not stimulated

From US20030224485A1, “Expression system for ABC transporters” (priority 2002, published 2003)
